Measured values published in patent US20240279232A1, “USE OF SUBSTITUTED 5-(4-METHYL-6-PHENYL-4H-BENZO[F]IMIDAZO[1,5-A][1,4] DIAZEPIN-3-YL)-1,2,4-O[…] THE TREATMENT OF INFLAMMATORY CONDITIONS” (priority 2021, published 2024).

How the values were obtained:
iNOS protein = assay: iNOS ELISA in activated microglia; format: cell-based, mouse; conditions: 10 μM, 24 h treatment, vs vehicle
Procedure: Mouse microglia were activated with IFNγ/LPS and treated with vehicle or 10 μM GL-IV-03. mRNA was isolated after 15 min, 1 h, 3 h and 6 h and iNOS was quantified using RT-qPCR. Cycle numbers for each sample were normalized to GAPDH using the ΔCt method (n=3). Mouse microglia were activated with IFNγ/LPS and treated with vehicle or 10 μM GL-IV-03 for 24 h. Cellular protein was extracted and analyzed with the mouse iNOS ELISA kit from Abcam (n=3). *, (p<0.05), ** (p<0.01) or *** (p<0.001) significance was calculate with ANOVA.
iNOS ELISA. Mouse microglia (2 mL of 500,000 cells/mL cell solution) were activated with 50 ng/mL LPS (Invivogen, NC9836) and 150 U/mL IFNγ (R&D Systems, 485M1100), and treated with compounds of interest in 6 well plates (VWR, 10062-892) for 24 hours. […] Cells were lysed with RIPA buffer and protein concentration quantified with the Pierce Rapid Gold BCA Protein Assay Kit (Thermo Scientific, A53227). Samples at 50 μg/mL were analyzed with the Mouse iNOS ELISA kit (ABCAM, ab253219). Absorbance (λ: 450 nm) was measured using a TECAN Infinite M1000 plate reader. Each measurement was carried with an n=3 and significance analyzed by ANOVA.

Swiss Webster mice = assay: Formalin test; format: in vivo, mouse; conditions: orally; GL-IV-03 10 mg/kg; ketoprofen 30 mg/kg
Procedure: Webster mice were treated orally four days in advance with indicated compounds and doses before the injection of 2% formalin in the right hind paw. Mice were evaluated during the first 5 min (phase 1) and after 20 minutes (phase 2) for 5 minutes in 5 seconds intervals Licking and biting the right hind paw during a 5 second interval was noted and combined as total time addressing the injected paw. Data is given as mean with SEM (n =8). ** indicate p<0.01 (unpaired t-test).
The antinociceptive effect of GL-IV-03 was investigated with the formalin test. Paw injections of formalin elicited a biphasic pain response separated in time (1-5 minutes and 20-60 minutes). […] Sensorimotor impairment and sedation were investigated with mice that were trained to balance on a rotating rod over a period of three minutes (rotarod). The amount of time that mice remained balanced on the rod after intraperitoneal (i.p.) and oral (p.o.) treatment with GL-IV-03 and MP-IV-010 is summarized in FIG. 7B-7C. […] The effect was similar to non-steroidal anti-inflammatory drug ketoprofen at 30 mg/kg. Sedation and inhibition of sensorimotor coordination can influence licking and biting pain behaviors, prompting rotarod studies for GL-IV-03 and MP-IV-010. […] In contrast to diazepam, a benzodiazepine with high affinity for the α1β2/3γ2 and other GABAAR subtypes, was sedating at 5 mg/kg.
Formalin test. […]

HERG = HERG (Homo sapiens, UniProt Q12809); assay: PDSP primary HERG binding; conditions: PDSP primary screening
Sequence of HERG (Q12809 whole entry): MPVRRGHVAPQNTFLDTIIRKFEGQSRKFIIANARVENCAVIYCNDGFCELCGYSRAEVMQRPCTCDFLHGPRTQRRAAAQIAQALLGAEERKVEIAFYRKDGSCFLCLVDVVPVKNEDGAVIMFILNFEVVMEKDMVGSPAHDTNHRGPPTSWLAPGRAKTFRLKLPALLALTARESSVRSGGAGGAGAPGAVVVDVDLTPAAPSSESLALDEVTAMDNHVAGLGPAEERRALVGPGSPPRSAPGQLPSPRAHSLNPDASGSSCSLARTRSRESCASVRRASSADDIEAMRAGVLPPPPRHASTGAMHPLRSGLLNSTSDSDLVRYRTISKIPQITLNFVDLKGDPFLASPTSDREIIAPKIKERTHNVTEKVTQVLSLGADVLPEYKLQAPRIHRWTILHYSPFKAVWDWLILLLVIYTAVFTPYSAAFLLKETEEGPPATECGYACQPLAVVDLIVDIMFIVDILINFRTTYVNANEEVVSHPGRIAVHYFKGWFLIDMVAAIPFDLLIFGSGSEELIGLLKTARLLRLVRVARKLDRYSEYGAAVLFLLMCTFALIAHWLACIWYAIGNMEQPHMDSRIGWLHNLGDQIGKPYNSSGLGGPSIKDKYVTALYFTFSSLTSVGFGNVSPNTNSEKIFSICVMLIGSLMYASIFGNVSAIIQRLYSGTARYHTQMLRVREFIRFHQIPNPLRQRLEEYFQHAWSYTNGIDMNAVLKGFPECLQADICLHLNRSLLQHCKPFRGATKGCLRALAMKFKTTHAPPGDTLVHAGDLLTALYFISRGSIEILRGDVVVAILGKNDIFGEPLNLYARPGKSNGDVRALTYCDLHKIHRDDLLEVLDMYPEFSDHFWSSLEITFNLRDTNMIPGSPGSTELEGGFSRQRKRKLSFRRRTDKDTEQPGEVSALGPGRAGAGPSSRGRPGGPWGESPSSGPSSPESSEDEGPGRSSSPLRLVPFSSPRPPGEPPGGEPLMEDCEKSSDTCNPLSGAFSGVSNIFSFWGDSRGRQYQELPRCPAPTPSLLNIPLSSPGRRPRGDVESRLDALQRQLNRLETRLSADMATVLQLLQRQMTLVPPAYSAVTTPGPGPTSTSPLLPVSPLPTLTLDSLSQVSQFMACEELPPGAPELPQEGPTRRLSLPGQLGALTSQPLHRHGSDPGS
Procedure: (§1) Because reduction of NO could not be reversed by GABAAR antagonists, the possible binding of MP-IV-010 to other cellular receptors was evaluated in collaboration with the NIMH Psychoactive Drug Screening Program.
(§2) Psychoactive Drug Screening Program. Detailed protocols for the primary and secondary radioligand binding assays can be found in the National Institute of Mental Health's Psychoactive Drug Screening Program (NIMH PDSP) Assay Protocol Book. Briefly, primary and secondary radioligand binding assays are carried out in a final of volume of 125 μL per well in appropriate binding buffer. The radioactive ligand concentration is close to the Kd. Total binding and nonspecific binding are determined in the absence and presence of 10 μM of appropriate reference compound, respectively. In brief, plates are usually incubated at room temperature and in the dark for 90 min. Reactions are stopped by vacuum filtration onto 0.3% polyethyleneimine (PEI) soaked 96-well filter mats using a 96-well Filtermate harvester, followed by three washes with cold PBS buffer. Scintillation cocktail is then melted onto the microwave-dried filters on a hot plate and radioactivity counted in a Microbeta counter. The data (n=6) were analyzed by nonlinear regression.

Alpha2B = Alpha2B (Homo sapiens, UniProt P18089); assay: PDSP primary binding Alpha2B; conditions: PDSP primary screening
Sequence of Alpha2B (P18089 whole entry): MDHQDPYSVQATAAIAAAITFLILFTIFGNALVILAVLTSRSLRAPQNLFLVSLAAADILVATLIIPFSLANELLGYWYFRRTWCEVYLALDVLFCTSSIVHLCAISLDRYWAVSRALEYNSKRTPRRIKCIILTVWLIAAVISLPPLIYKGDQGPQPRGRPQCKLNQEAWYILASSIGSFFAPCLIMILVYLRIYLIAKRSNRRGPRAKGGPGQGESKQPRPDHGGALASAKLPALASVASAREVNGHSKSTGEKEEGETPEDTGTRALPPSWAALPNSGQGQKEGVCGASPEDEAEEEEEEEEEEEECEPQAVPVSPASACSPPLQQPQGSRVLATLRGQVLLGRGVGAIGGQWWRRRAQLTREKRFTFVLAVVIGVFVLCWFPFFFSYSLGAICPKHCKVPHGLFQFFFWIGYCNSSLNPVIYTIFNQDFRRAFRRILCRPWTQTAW
Procedure: as §1, §2

Beta1 = Beta1 (Homo sapiens, UniProt P08588); assay: PDSP primary binding Beta1; conditions: PDSP primary screening
Sequence of Beta1 (P08588 whole entry): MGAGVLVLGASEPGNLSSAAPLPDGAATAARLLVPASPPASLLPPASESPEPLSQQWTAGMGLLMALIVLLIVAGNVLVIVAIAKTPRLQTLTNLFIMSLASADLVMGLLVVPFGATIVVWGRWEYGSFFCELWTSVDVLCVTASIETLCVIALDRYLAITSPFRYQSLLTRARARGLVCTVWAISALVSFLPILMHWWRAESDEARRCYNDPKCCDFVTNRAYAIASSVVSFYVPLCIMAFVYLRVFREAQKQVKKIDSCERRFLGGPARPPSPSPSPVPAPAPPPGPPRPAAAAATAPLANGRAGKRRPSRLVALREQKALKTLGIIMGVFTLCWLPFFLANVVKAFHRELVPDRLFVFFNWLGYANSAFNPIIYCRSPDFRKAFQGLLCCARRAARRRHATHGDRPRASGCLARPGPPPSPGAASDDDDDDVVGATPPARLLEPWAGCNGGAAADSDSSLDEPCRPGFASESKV
Procedure: as §1, §2

5-HT2A = 5-HT2A (Homo sapiens, UniProt P28223); assay: PDSP primary binding 5-HT2A; conditions: PDSP primary screening
Sequence of 5-HT2A (P28223 whole entry): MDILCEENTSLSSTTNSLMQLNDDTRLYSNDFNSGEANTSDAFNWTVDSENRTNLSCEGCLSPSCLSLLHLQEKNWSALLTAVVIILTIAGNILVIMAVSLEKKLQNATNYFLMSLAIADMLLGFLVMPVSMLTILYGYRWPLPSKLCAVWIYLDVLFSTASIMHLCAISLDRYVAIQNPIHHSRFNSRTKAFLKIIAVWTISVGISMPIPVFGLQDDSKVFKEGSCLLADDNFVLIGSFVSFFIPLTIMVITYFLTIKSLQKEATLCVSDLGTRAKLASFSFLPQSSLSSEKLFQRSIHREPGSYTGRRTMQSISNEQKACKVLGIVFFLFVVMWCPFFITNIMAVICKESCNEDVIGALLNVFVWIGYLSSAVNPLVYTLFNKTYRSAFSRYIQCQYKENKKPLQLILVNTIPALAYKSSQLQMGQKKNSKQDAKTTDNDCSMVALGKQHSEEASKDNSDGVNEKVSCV
Procedure: as §1, §2

Beta2 = Beta2 (Homo sapiens, UniProt P07550); assay: PDSP primary binding Beta2; conditions: PDSP primary screening
Procedure: as §1, §2

5-HT1B = 5-HT1B (Homo sapiens, UniProt P28222); assay: PDSP primary binding 5-HT1B; conditions: PDSP primary screening
Sequence of 5-HT1B (P28222 whole entry, species assumed): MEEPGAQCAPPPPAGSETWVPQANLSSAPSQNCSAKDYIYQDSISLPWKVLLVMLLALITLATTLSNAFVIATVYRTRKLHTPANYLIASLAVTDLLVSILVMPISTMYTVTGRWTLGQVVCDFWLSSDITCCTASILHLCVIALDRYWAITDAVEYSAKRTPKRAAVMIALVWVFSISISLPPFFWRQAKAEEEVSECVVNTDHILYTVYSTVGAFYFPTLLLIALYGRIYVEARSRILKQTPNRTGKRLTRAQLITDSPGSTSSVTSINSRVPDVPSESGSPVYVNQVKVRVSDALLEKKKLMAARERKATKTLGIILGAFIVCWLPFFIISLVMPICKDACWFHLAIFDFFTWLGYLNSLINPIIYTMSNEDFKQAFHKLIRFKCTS
Procedure: as §1, §2

5-HT2B = 5-HT2B (Homo sapiens, UniProt P41595); assay: PDSP primary binding 5-HT2B; conditions: PDSP primary screening
Sequence of 5-HT2B (P41595 whole entry, species assumed): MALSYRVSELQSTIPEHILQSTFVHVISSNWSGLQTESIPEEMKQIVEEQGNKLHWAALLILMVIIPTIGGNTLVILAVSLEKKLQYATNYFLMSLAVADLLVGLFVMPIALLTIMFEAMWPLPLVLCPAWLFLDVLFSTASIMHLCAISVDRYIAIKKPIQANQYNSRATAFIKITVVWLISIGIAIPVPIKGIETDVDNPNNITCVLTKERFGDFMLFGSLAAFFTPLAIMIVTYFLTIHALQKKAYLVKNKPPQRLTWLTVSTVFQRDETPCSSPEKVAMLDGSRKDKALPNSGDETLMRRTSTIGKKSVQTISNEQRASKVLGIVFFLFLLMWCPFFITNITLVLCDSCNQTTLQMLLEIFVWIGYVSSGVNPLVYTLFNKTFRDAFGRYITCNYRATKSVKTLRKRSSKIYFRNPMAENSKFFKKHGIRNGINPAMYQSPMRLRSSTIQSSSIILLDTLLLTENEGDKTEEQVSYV
Procedure: as §1, §2

5-HT2C = 5-HT2C (Homo sapiens, UniProt P28335); assay: PDSP primary binding 5-HT2C; conditions: PDSP primary screening
Sequence of 5-HT2C (P28335 33-458, species assumed): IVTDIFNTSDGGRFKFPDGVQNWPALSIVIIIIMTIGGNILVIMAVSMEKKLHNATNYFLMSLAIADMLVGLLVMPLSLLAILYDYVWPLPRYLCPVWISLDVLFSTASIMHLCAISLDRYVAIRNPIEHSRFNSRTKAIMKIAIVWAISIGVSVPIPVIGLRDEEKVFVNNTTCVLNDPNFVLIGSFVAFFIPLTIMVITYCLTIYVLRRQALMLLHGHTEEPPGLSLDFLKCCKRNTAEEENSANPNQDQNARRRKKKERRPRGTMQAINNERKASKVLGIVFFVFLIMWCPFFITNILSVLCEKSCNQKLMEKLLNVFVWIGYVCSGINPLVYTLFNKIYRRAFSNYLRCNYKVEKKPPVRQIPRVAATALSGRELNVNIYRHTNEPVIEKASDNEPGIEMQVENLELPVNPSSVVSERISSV
Procedure: as §1, §2

H4 = H4 (Homo sapiens, UniProt Q9H3N8); assay: PDSP primary binding H4; conditions: PDSP primary screening
Sequence of H4 (Q9H3N8 whole entry): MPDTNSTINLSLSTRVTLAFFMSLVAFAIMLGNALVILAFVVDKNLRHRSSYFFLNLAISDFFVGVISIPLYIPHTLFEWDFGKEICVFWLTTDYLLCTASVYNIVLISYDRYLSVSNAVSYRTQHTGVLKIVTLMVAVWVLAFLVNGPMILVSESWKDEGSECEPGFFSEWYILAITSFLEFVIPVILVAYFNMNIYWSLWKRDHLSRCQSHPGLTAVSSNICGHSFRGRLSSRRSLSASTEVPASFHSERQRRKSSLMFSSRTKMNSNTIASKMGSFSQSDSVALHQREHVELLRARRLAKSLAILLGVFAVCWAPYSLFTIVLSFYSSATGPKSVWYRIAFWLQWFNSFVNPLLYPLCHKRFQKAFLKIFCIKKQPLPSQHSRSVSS
Procedure: as §1, §2

D3 = D3 (Homo sapiens, UniProt P35462); assay: PDSP primary binding D3; conditions: PDSP primary screening
Sequence of D3 (P35462 whole entry): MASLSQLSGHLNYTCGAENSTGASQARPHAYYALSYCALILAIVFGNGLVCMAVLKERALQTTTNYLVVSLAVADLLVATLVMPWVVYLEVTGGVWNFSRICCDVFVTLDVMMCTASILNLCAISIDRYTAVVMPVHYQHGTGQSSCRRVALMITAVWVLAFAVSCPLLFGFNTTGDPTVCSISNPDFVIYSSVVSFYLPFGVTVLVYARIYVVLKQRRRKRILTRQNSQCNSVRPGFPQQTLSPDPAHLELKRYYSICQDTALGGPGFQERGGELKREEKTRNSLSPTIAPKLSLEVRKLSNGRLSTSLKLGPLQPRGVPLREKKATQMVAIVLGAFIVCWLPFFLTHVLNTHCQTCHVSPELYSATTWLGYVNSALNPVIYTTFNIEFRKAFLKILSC
Procedure: as §1, §2

5-HT1E = 5-HT1E (Homo sapiens, UniProt P28566); assay: PDSP primary binding 5-HT1E; conditions: PDSP primary screening
Procedure: as §1, §2

σ2 receptor = target: T1, σ2 receptor (Homo sapiens, UniProt Q5BJF2); assay: σ2 receptor binding (3H-ditolylguanidine, HEK cell lysate)
T1 construct: expressed in transfected cells; host or cells: HEK cells (stably transfected)
T1 sequence (Q5BJF2 whole entry, species assumed): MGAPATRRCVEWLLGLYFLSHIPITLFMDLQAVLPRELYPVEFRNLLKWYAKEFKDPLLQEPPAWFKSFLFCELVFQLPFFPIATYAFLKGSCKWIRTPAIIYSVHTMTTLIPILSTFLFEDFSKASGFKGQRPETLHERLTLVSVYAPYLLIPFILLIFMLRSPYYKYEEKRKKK
Procedure: as §2

Alpha2A = Alpha2A (Homo sapiens, UniProt P08913); assay: PDSP primary binding Alpha2A; conditions: PDSP primary screening
Procedure: as §1, §2

Alpha1D = Alpha1D (Homo sapiens, UniProt P25100); assay: PDSP primary binding Alpha1D; conditions: PDSP primary screening
Procedure: as §1, §2

| SMILES | amount of iNOS protein (iNOS protein) | antinociceptive effect, formalin test (phase 1 and 2) (Swiss Webster mice) | Percent Competition HERG binding (HERG) [%] | Percent Competition Alpha2B (Alpha2B) [%] | Percent Competition Beta1 (Beta1) [%] | Percent Competition 5-HT2A (5-HT2A) [%] | Percent Competition Beta2 (Beta2) [%] | Percent Competition 5-HT1B (5-HT1B) [%] | Percent Competition 5-HT2B (5-HT2B) [%] | Percent Competition 5-HT2C (5-HT2C) [%] | Percent Competition H4 (H4) [%] | Percent Competition D3 (D3) [%] | Percent Competition 5-HT1E (5-HT1E) [%] | IC50 (σ2 receptor) [µM] | Percent Competition Sigma 2 (σ2 receptor; PDSP primary screening) [%] | Percent Competition Alpha2A (Alpha2A) [%] | Percent Competition Alpha1D (Alpha1D) [%] |
| --- | --- | --- | --- | --- | --- | --- | --- | --- | --- | --- | --- | --- | --- | --- | --- | --- | --- |
| CCc1noc(-c2ncn3c2[C@@H](C)N=C(c2ccccc2F)c2cc(C4CC4)ccc2-3)n1 [GL-IV-03, (R)-5-(8-Cyclopropyl-6-(2-fluorophenyl)-4-methyl-4H-benzo[f]imidazo[1,5-a][1,4]diazepin-3-yl)-3-ethyl-1,2,4-oxadiazole] | significantly lower | antinociceptive effects in both acute pain (phase 1) and inflammation mediated pain (phase 2) | – | – | – | – | – | – | – | – | – | – | – | – | – | – | – |
| C#Cc1ccc2c(c1)C(c1ccccc1F)=N[C@H](C)c1c(-c3nc(C(C)C)no3)ncn1-2 [MP-IV-010, (R)-5-(8-ethynyl-6-(2-fluorophenyl)-4-methyl-4H-benzo[f]imidazo[1,5-a][1,4]diazepin-3-yl)-3-isopropyl-1,2,4-oxadiazole] | – | – | 29 | 29 | 6 | −1 | 20 | 29 | 0 | −2 | 6 | 15 | −7 | 5.2 | 64 | 14 | 9 |
